Test results taken from patent US20080182894A1, “METHOD OF PROVIDING PREPARATION FOR TOPICAL APPLICATION AND SUPPLEMENT MEETING CLIENT'S NEEDS” (AJINOMOTO CO., INC., priority 2005, published 2008).
Entries after “also recorded” stand apart in the source; their conditions may differ.

Key:
hairless mouse [1] = assay: Inhibition of UVB-induced pigmentation: oral tocopherol acetate plus transdermal dihydrocapsiate; assay type: in vivo
Protocol: The synergistic effect of tocopherol acetate and dihydrocapsiate was confirmed using a pigmentation induction mouse based on the inhibition of pigmentation induced by ultraviolet beam (UVB).
(1) Before the start of ultraviolet beam (UVB) irradiation, tocopherol acetate (200 μl) as administered orally once a day for 3 days to a hairless mouse (12-week-old, female) using a gavage needle.
(2) After the 3-day oral administration in (1), the hairless mouse was irradiated with UVB (80-90 mJ/cm^2).
(3) Thirty minutes after the irradiation in (2), tocopherol acetate (200 μl) was administered orally to the hairless mouse using a gavage needle. Five minutes after the oral administration, 28 μl of 5 wt % dihydrocapsiate dissolved in 50 wt % ethyl alcohol was applied to the hairless mouse on the left side of the back.
Treatments (2) and (3) were performed 3 times a week (Monday, Wednesday and Friday) and treatment (3) alone was performed twice a week (Tuesday and Thursday). The skin on the back of the mouse after about 3 weeks from the start of the UV irradiation was visually evaluated.

hairless mouse [2] = assay: Inhibition of UVB-induced pigmentation: oral cystine plus transdermal dihydrocapsiate; assay type: in vivo; details: 5% dihydrocapsiate (50% aqueous ethanol) applied plus oral cystine 50 mg in 150 μl 0.5% CMC; about 3 and about 4 weeks; vs 50% aqueous ethanol application group
Protocol: An experiment similar to that in Example 2 was performed using cystine as an oral agent. In particular, 50 mg of cystine was dissolved in 150 μl of a 0.5% aqueous CMC (carboxymethylcellulose) solution and used as an oral administration sample, and 5% dihydrocapsiate (50% aqueous ethanol solution) was used as a dermal application sample. Ultraviolet beam (UVB) was utilized as an irradiation source without preliminary administration, and the synergistic effect afforded by the oral administration agent and the blood circulation promoter on the blackness suppressive effect on the pigmentation of the back of a mouse was confirmed according to the experiment schedule similar to that in Example 2.
Suppression of pigmentation induction in the dihydrocapsiate application group was visually evaluated.
Visual evaluation criteria • 0: No pigmentation • 1: Spots of pale pigmentation found in a part • 2: Spots of pale pigmentation found on the entire back • 3: Spots of pigmentation found on the entire back (partly deep pigmentation was found) • 4: Spots of deep pigmentation found on the entire back • 5: Deep pigmentation found on the entire back

[3] = tested on: hairless mouse (HR-1, female); assay: Increase in topical concentration of systemically administered trypan blue dye by topical capsiate; assay type: in vivo
Protocol: A hairless mouse (HR-1, female) was intraperitoneally injected with a trypan blue solution (0.4%, 300 μl). After injection, 100 μl of 5% capsiate (dissolved in an ethanol solution) was applied uniformly using a pipet chip to the right side of the back. As a control, 100 μl of ethanol alone was uniformly applied to the left side of the back by a similar method.

[4] = tested on: hairless mouse (HR-1, female); assay: Vasodilating (blood circulation improving) effect, red spot on auricles, visual evaluation; assay type: in vivo; details: for blood circulation promoting action, intensity and sustainability (conclusion): auricle red spot test, 1 wt % and 5 wt %
Excerpt: The vasodilating effects (blood circulation improving effect) of capsiate and capsaicin were compared using auricles of a hairless mouse. A sample was applied to the right ear of a hairless mouse (HR-1, female) and a control was applied to the left ear thereof, and the development of a red spot was visually evaluated. (1) Capsiate (1 wt % or 5 wt % dissolved in liquid paraffin) (2) Capsaicin (1 wt % or 5 wt % dispersed in liquid paraffin Liquid paraffin

[5] = Dissolution of sample in liquid paraffin; assay type: physicochemical; details: 1 wt % and 5 wt %; evaluated in a dispersion state
[6] = 1 wt % in liquid paraffin, right ear, control liquid paraffin on left ear
[7] = 5 wt % in liquid paraffin, from 30 min onward after application

With `CC(=O)Oc1c(C)c(C)c2c(c1C)CCC(C)(CCC[C@H](C)CCC[C@H](C)CCCC(C)C)O2` (some centres unmarked) [tocopherol acetate, reference compound] the “UVB-induced pigmentation of back skin, visual evaluation, tocopherol only control” value (hairless mouse [1]; oral tocopherol acetate 200 μl, solvent (50 wt % ethyl alcohol) applied instead of dihydrocapsiate, right vs left side of back) was “a clear difference was not observed; also recorded: failed to suppress induction of pigmentation”.
For `COc1cc(COC(=O)CCCCCCC(C)C)ccc1O` [dihydrocapsiate], the “UVB-induced pigmentation of back skin, visual evaluation, combined use” value (hairless mouse [1]; 28 μl of 5 wt % dihydrocapsiate on left side of back plus oral tocopherol acetate 200 μl, UVB 80-90 mJ/cm^2, about 3 weeks, vs non-application right side) was “less pigmentation; also recorded: can suppress induction of pigmentation by UVB”, the “UVB-induced pigmentation of back skin, visual evaluation, dihydrocapsiate alone” value (hairless mouse [1]; dihydrocapsiate applied alone, no oral tocopherol acetate, UVB irradiation) was “UVB irradiation induced pigmentation in the application site; also recorded: failed to suppress induction of pigmentation” and the “pigmentation suppressive effect after treatment is ceased” value (hairless mouse [1]; tocopherol acetate administration and dihydrocapsiate application ceased, UVB irradiation continued, dihydrocapsiate application site) was “disappears and induction of pigmentation begins”. For the same compound, the “UVB-induced pigmentation induction, visual evaluation (score 0-5, FIG. 9)” value (hairless mouse [2]) was “clearly suppressed”.
With `COc1cc(COC(=O)CCCC/C=C/C(C)C)ccc1O` [capsiate] the “pigmentation of blue dye in the vicinity of the auricle” value ([3]; 5% capsiate in ethanol applied to auricle, trypan blue i.p., 30-60 minutes after application) was “pigmentation of a blue dye was observed”, the “skin pigmentation (infiltration) of blue dye at application site” value ([3]; 100 μl of 5% capsiate in ethanol on back, trypan blue i.p., 30 minutes after application) was “clear skin pigmentation (infiltration) of the blue dye was observed” and the “skin pigmentation of blue dye derived from trypan blue at application site” value ([3]; 100 μl of 5% capsiate in ethanol on right side of back vs ethanol alone on left, trypan blue 0.4% 300 μl i.p., 15-20 minutes after application) was “confirmed only on the capsiate application side”. For the same compound, the “development of a red spot on auricle, visual evaluation” value (from here on “development of a red spot on auricle”) [4, 6] was “no development of a red spot”, the “development of a red spot on auricle” value [4, 7] was “clear red spot” and the “blood circulation promoting action, intensity and sustainability (conclusion)” value [4] was “mild sustainability and intensity”. The “time until developed red spot completely disappeared” value ([4]; capsiate in liquid paraffin, auricle) was “about 2 hr”.
For `COc1cc(CNC(=O)CCCC/C=C/C(C)C)ccc1O` [capsaicin, reference compound], the “development of a red spot on auricle” value [4, 6] was “presence of a red spot”, the “development of a red spot on auricle” value [4, 7] was “clear red spot” and the “blood circulation promoting action, intensity and sustainability (conclusion)” value [4] was “strong blood circulation promoting action and long sustainability”. For the same compound, the “time over which red spot maintained the initial state” value ([4]; capsaicin, even at 1 wt %, auricle) was > 2 h and the “dissolution in liquid paraffin” value [5] was “did not dissolve completely”.
